Data taken from patent US20230321066A1, “PREVENTATIVE TREATMENT OF MIGRAINE” (priority 2020, published 2023).

What was measured:
[1] = tested on: episodic and chronic migraine patients; experiment: BHV3000-305 study: adverse events and liver safety on double-blind treatment
[2] = tested on: episodic and chronic migraine patients; experiment: BHV3000-305 Phase 2/3 randomized, double-blind, placebo-controlled study of rimegepant in migraine prevention: efficacy; assay type: in vivo, human
Experimental: Clinical Trial—BHV3000-305: A Phase 2/3, Randomized, Double-blind, Placebo-controlled Study to Evaluate the Efficacy and Safety of Rimegepant in Migraine Prevention (ClinicalTrials.gov Identifier: NCT03732638).
A phase 2/3 clinical study was conducted with 1629 participants, as follows.
The purpose of this is study is to compare the efficacy of BHV-3000 (rimegepant) to placebo as a preventive treatment for migraine, as measured by the reduction in the number of migraine days per month.
• Study Type: Interventional (Clinical Trial) • Actual Enrollment: 1629 participants • Allocation: Randomized • Intervention Model: Parallel Assignment • Masking: Triple (Participant, Care Provider, Investigator) • Primary Purpose: Prevention • Official Title: A Phase 2/3, Randomized, Double-blind, Placebo-controlled Study to Evaluate the Efficacy and Safety of Rimegepant in Migraine Prevention • Actual Study Start Date: Nov. 14, 2018 • Actual Primary Completion Date: Dec. 10, 2019
Primary Outcome Measures: • 1. Change from baseline in mean number of migraine days per month [Time Frame: Mean number of migraine days per month as assessed over 3 months (12 weeks)] • Change from baseline in mean number of migraine days per month as measured over the 12-week double-blind phase of the study.
Secondary Outcome Measures: • 1. Achievement of at least a 50% reduction from baseline in mean number of moderate to severe monthly migraine days. [Time Frame: baseline to end of Week 12] • Achievement of at least a 50% reduction from baseline in mean number of moderate to severe monthly migraine days over course of the double-blind treatment phase. • 2. The mean number of rescue medication days per month. [Time Frame: baseline to end of week 12 as measure per month] • The mean number of rescue medication days per month over the course of the double-blind, treatment phase. Rescue medications include the rescue medications defined in this protocol. • 3. Adverse events. [Time Frame: baseline to end of Week 12] • Adverse events that occur in at least 5% of treated subjects; the frequency of unique subjects with serious adverse events, adverse events leading to discontinuation and clinically significant laboratory abnormalities, as reported on case report forms. • 4. The frequency of AST or ALT elevations. [Time Frame: baseline to end of Week 12] • The frequency of AST or ALT elevations>3×ULN, concurrently with bilirubin elevations>2×ULN, will be assessed by tabulating the number of unique subjects with this pairing of events. • 5. The frequency of hepatic-related adverse events and hepatic-related treatment. [Time Frame: baseline to end of Week 12] • The frequency of hepatic-related adverse events and hepatic-related treatment discontinuations will be tabulated from case report forms and will be based on unique subjects reporting such events. • 6. The mean change from baseline in the MSQ role function [Time Frame: baseline to end of Week 12] • The mean change from baseline in the MSQ role function—restrictive domain score at Week 12 of the double-blind treatment phase. • 7. The mean change from baseline in the MIDAS total score. [Time Frame: baseline to end of Week 12] • The mean change from baseline in the MIDAS total score at Week 12 of the double-blind treatment phase.
This pivotal study enrolled patients with both episodic and chronic migraine. The study evaluated the efficacy and safety of rimegepant 75 mg (n=370) dosed every other day for the preventive treatment of migraine in patients versus placebo (n=371) who had migraine for at least one year and 4 to 18 moderate to severe migraine attacks per month over three months prior to enrollment. During the one-month observation period, patients experienced on average 10.7 migraine days per month, with 7.4 migraine days of moderate to severe migraine during the same period.

[3] = tested on: episodic and chronic migraine patients; conditions: human, in vivo, 12 weeks
[4] = 370 patients who received rimegepant 75 mg every other day
[5] = Severity Mild, treated subjects N = 370
[6] = Severity Moderate or Severe, treated subjects N = 370
[7] = Severity Moderate, treated subjects N = 370
[8] = Severity Total, treated subjects N = 370

SMILES: N[C@@H]1c2cccnc2[C@H](OC(=O)N2CCC(n3c(=O)[nH]c4ncccc43)CC2)CC[C@H]1c1cccc(F)c1F [Rimegepant, [(5S,6S,9R)-5-amino-6-(2,3-difluorophenyl)-6,7,8,9-tetrahydro-5H-cyclohepta[b]pyridin-9-yl] 4-(2-oxo-3H-imidazo[4,5-b]pyridin-1-yl)piperidine-1-carboxylate]
- ALT/AST elevations: relatedness to study drug as judged by independent liver monitoring panel [1, 4]: did not determine any ALT/AST elevations to be in the categories of probably or definitely related to study drug
- cases of ALT or AST>3×ULN and bilirubin>2×ULN [1, 4]: no cases
- Enterobiasis [1, 5]: 0 n
- Folliculitis [1, 5]: 0 n
- Oral candidiasis [1, 5]: 0 n
- Orchitis [1, 5]: 0 n
- Otitis media [1, 5]: 0 n
- Acute sinusitis [1, 6]: 0 n
- Appendicitis [1, 6]: 0 n
- Bacterial vaginosis [1, 6]: 0 n
- Herpes zoster [1, 6]: 0 n
- Pharyngitis streptococcal [1, 6]: 0 n
- Pneumonia [1, 6]: 0 n
- Pyelonephritis [1, 6]: 0 n
- Sepsis [1, 6]: 0 n
- Acute sinusitis [1, 7]: 0 n
- Appendicitis [1, 7]: 0 n
- Bacterial vaginosis [1, 7]: 0 n
- Herpes zoster [1, 7]: 0 n
- Pharyngitis streptococcal [1, 7]: 0 n
- Sepsis [1, 7]: 0 n
- Acute sinusitis [1, 8]: 0 n
- Appendicitis [1, 8]: 0 n
- Enterobiasis [1, 8]: 0 n
- Folliculitis [1, 8]: 0 n
- Oral candidiasis [1, 8]: 0 n
- Orchitis [1, 8]: 0 n
- Otitis media [1, 8]: 0 n
- Pelvic inflammatory disease [1, 8]: 0 n
- Pharyngitis streptococcal [1, 8]: 0 n
- Pneumonia [1, 8]: 0 n
- Pyelonephritis [1, 8]: 0 n
- Sepsis [1, 8]: 0 n
- Tooth infection [1, 8]: 0 n
- reduction in mean number of migraine days as compared to placebo ([2]; (4.9−3.7)/3.7*100, participants not taking concomitant preventive treatment): 32%
- Change From OP in Mean Number of Total Migraine Days per Month in First Month, Least-squares mean, Difference (Rimegepant − Placebo) ([2]; Evaluable mITT subjects, P-value 0.0013): −0.9
- Change From OP in Mean Number of Total Migraine Days per Month Overall, Least-squares mean, Difference (Rimegepant − Placebo) ([2]; Evaluable mITT subjects, P-value 0.0094): −0.7
- Primary Endpoint: Change From OP in Mean Number of Total Migraine Days per Month in Last Month, Least-squares mean, Difference (Rimegepant − Placebo) ([2]; Evaluable mITT subjects, P-value 0.0176, significant in hierarchical testing): −0.8
- MSQoL Restrictive Role Function Domain Score Change From Baseline at Week 12, Least-squares mean, Difference (Rimegepant − Placebo) ([2]; Evaluable mITT subjects, P-value 0.0358): 3.5
- >=50% Reduction From OP in Mean Number of Moderate or Severe Migraine Days per Month in Last Month, Stratified Risk, Difference (Rimegepant − Placebo) ([2]; Evaluable mITT subjects, P-value 0.0734): 5.7
- Rescue Medication Days per Month In Last Month, Least-squares mean, Difference (Rimegepant − Placebo) ([2]; Evaluable mITT subjects, P-value 0.3868): −0.2
- MIDAS Total Score Change From Baseline at Week 12, Least-squares mean, Difference (Rimegepant − Placebo) ([2]; Evaluable mITT subjects, P-value 0.9616): −0.1
- Pertussis [3]: 0 n
